Laboratory results published in the supplement of paper PMC10307832.

What was measured:
Assay in all cases: relative viability (nuclei count vs DMSO), 5 days (fraction); higher = more cells survive
Vemurafenib + Tozasertib = compound: CCCS(=O)(=O)Nc1ccc(F)c(C(=O)c2c[nH]c3ncc(-c4ccc(Cl)cc4)cc23)c1F [Vemurafenib] + Cc1cc(Nc2cc(N3CCN(C)CC3)nc(Sc3ccc(NC(=O)C4CC4)cc3)n2)n[nH]1 [Tozasertib] (partner 0.1 µM)
In short: (§1)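 Lung cancer cell lines were pin-tool dosed in 1536-well plates on the day after seeding, with either a lone drug or a fixed anchor-drug dose plus five library-drug doses (not always all listed) in √10 steps. Nuclei were counted on 4× images after 5 days. Relative viability is the ratio of treated-well to vehicle-well nuclei counts, with each value a median of duplicate plates.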

Alpelisib + Phenformin = compound: Cc1nc(NC(=O)N2CCC[C@H]2C(N)=O)sc1-c1ccnc(C(C)(C)C(F)(F)F)c1 [Alpelisib] + N=C(N)NC(=N)NCCc1ccccc1 [Phenformin] (partner 250 µM)
In short: as §1

Alpelisib + AZD7762 = compound: Cc1nc(NC(=O)N2CCC[C@H]2C(N)=O)sc1-c1ccnc(C(C)(C)C(F)(F)F)c1 [Alpelisib] + NC(=O)Nc1cc(-c2cccc(F)c2)sc1C(=O)N[C@H]1CCCNC1 [AZD7762] (partner 0.2 µM)
In short: as §1

Vemurafenib + Olaparib = compound: CCCS(=O)(=O)Nc1ccc(F)c(C(=O)c2c[nH]c3ncc(-c4ccc(Cl)cc4)cc23)c1F [Vemurafenib] + O=C(c1cc(Cc2n[nH]c(=O)c3ccccc23)ccc1F)N1CCN(C(=O)C2CC2)CC1 [Olaparib] (partner 8 µM)
In short: as §1

Cell Line	relative viability (Vemurafenib + Tozasertib; first compound 0.03162 µM)	relative viability (Vemurafenib + Tozasertib; first compound 0.1 µM)	relative viability (Vemurafenib + Tozasertib; first compound 0.3162 µM)	relative viability (Vemurafenib + Tozasertib; first compound 1 µM)	relative viability (Alpelisib + Phenformin; first compound 0.04 µM)	relative viability (Alpelisib + Phenformin; first compound 0.1265 µM)	relative viability (Alpelisib + Phenformin; first compound 0.4 µM)	relative viability (Alpelisib + Phenformin; first compound 1.265 µM)	relative viability (Alpelisib + Phenformin; first compound 4 µM)	relative viability (Alpelisib + AZD7762; first compound 0.04 µM)	relative viability (Alpelisib + AZD7762; first compound 0.1265 µM)	relative viability (Alpelisib + AZD7762; first compound 0.4 µM)	relative viability (Alpelisib + AZD7762; first compound 1.265 µM)	relative viability (Alpelisib + AZD7762; first compound 4 µM)	relative viability (Vemurafenib + Olaparib; first compound 0.03162 µM)	relative viability (Vemurafenib + Olaparib; first compound 0.3162 µM)	relative viability (Vemurafenib + Olaparib; first compound 1 µM)	relative viability (Vemurafenib + Olaparib; first compound 0.1 µM)
NCI-H2170	0.637	0.617	0.751	0.679	0.466	0.384	0.438	0.45	0.387	0.865	0.712	0.891	0.632	0.481	0.54	0.624	0.553	
HCC-366	0.0795	0.0611	0.0563	0.0677	0.639	0.608	0.636	0.428	0.139	0.317	0.316	0.307	0.183	0.072	0.343		0.388	0.304
EKVX	0.351		0.383	0.326	0.234	0.229	0.253	0.225	0.192	0.868	0.662	0.675	0.636	0.533	0.891	0.898	0.911	
NCI-H1734	0.269	0.246	0.281	0.269	0.376		0.349	0.275	0.23	0.604	0.556	0.584	0.397	0.209	0.55	0.611	0.615	0.62
NCI-H522	0.609	0.471	0.592	0.631	0.573	0.601	0.782	0.5	0.582	0.791	0.987	0.729	0.702	0.678	0.667	0.669	0.725	0.543
CAL-12T	0.31	0.289	0.346	0.26	0.545	0.593	0.699	0.543	0.494	0.7	0.593	0.754	0.566	0.643	0.686	0.83	0.829	0.663
NCI-H2347	0.452	0.53	0.507	0.482	0.445	0.299	0.416	0.38	0.376	0.756	0.661	0.815	0.81	0.764	0.495	0.547	0.588	0.493
NCI-H3122	0.398	0.335	0.371	0.365	0.409	0.403	0.41	0.399	0.316	0.989	1.03	0.978	0.693	0.589	0.63	0.606	0.597	0.647
NCI-H23	0.309	0.352	0.345	0.278	0.779	0.702	0.783	0.605	0.506	0.23	0.211	0.396	0.154	0.224	0.309	0.295	0.343	0.326
ABC-1	0.151	0.174	0.181	0.202	0.256	0.252	0.211	0.233	0.222	0.996	0.875	1.2	0.598	0.69	1.12	0.6	0.93	0.8
HCC-15	0.375	0.4	0.389	0.253	0.5	0.434	0.45	0.372	0.274	1.23	1.35	1.32	1.05	0.908	0.699	0.606	0.522	0.669
NCI-H358	0.122	0.107	0.107	0.111	0.309	0.321	0.338	0.242	0.16	0.506	0.386	0.497	0.301	0.295	0.539	0.625	0.521	0.745
NCI-H1755	0.516	0.562	0.555	0.53	0.653	0.601	0.68	0.574	0.433	0.378	0.544	0.465	0.326	0.362	0.806	0.907	0.8	0.898
LCLC-97TM1	0.206	0.268	0.269	0.166	0.493	0.439	0.385	0.248	0.19	0.165	0.305	0.34	0.289	0.166		0.353	0.269	0.416
NCI-H2085	0.754	0.727	0.802	0.508	0.73	0.631	0.782	0.698	0.621	0.946	0.781	1.09	0.944	0.865	0.737	0.632	0.858	0.791
NCI-H647	0.262	0.263	0.271	0.248	0.396	0.421	0.53	0.378	0.359	0.586	0.322	0.688	0.393	0.325	0.605	0.513	0.634	0.469
BEN	0.515	0.52		0.426	0.262	0.239	0.267	0.296	0.281	0.67	0.59	0.756	0.825	0.549	0.971	0.653	1.06	0.992
